Measurements as given in PubChem BioAssay (NCI).
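At the GI50, growth is halved. TGI denotes the concentration required for complete inhibition of growth.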

Experiments:
Test in all cases: inhibition of tumour cell growth, NCI panel, 384-well format
[1] = tested on: CAKI-1 renal
[2] = tested on: MCF7 breast
[3] = tested on: SN12C renal
[4] = tested on: HCT-15 colon
[5] = tested on: UO-31 renal
[6] = tested on: ACHN renal
[7] = tested on: NCI-H23 lung
[8] = tested on: RPMI-8226 leukemia
[9] = tested on: MDA-MB-435 melanoma
[10] = tested on: OVCAR-3 ovarian
[11] = tested on: HCT-116 colon
[12] = tested on: SNB-19 CNS
[13] = tested on: SF-539 CNS
[14] = tested on: MDA-MB-231 breast
[15] = tested on: K-562 leukemia
[16] = tested on: UACC-62 melanoma
[17] = tested on: T-47D breast
[18] = tested on: HL-60(TB) leukemia
[19] = tested on: KM12 colon
[20] = tested on: NCI-H226 lung
[21] = tested on: SK-MEL-5 melanoma
[22] = tested on: SK-OV-3 ovarian
[23] = tested on: NCI-H522 lung
[24] = tested on: OVCAR-8 ovarian
[25] = tested on: MALME-3M melanoma
[26] = tested on: BT-549 breast
[27] = tested on: CCRF-CEM leukemia
[28] = tested on: U251 glioblastoma
[29] = tested on: LOX IMVI melanoma
[30] = tested on: HCC-2998 colon
[31] = tested on: HS 578T breast
[32] = tested on: NCI/ADR-RES ovarian
[33] = tested on: HOP-92 NSCLC
[34] = tested on: MOLT-4 leukemia
[35] = tested on: SW-620 colon
[36] = tested on: PC-3 prostate
[37] = tested on: SF-268 CNS
[38] = tested on: SK-MEL-2 melanoma
[39] = tested on: RXF 393 renal
[40] = tested on: OVCAR-4 ovarian
[41] = tested on: COLO 205 colon
[42] = tested on: IGROV1 ovarian
[43] = tested on: SK-MEL-28 melanoma
[44] = tested on: OVCAR-5 ovarian
[45] = tested on: MDA-MB-468 breast
[46] = tested on: NCI-H322M lung
[47] = tested on: SR leukemia
[48] = tested on: A498 renal
[49] = tested on: HOP-62 NSCLC
[50] = tested on: UACC-257 melanoma
[51] = tested on: HT29 colon
[52] = tested on: 786-0 renal
[53] = tested on: EKVX NSCLC
[54] = tested on: M14 melanoma
[55] = tested on: NCI-H460 NSCLC
[56] = tested on: DU-145 prostate
[57] = tested on: SF-295 CNS
[58] = tested on: SNB-75 CNS
[59] = tested on: TK-10 renal
[60] = tested on: A549 NSCLC

O=C(/C=C\n1cnc(-c2cc(C(F)(F)F)cc(C(F)(F)F)c2)n1)NNc1cnccn1
GI50 [1]: 99.7 nM | TGI [1]: 13100 nM | GI50 [2]: 58 nM | TGI [2]: 2150 nM | GI50 [3]: 655 nM | TGI [3]: 5870 nM | GI50 [4]: 152 nM | TGI [4]: 1310 nM | GI50 [5]: 466 nM | TGI [5]: 4410 nM | GI50 [6]: 250 nM | TGI [6]: 5390 nM | GI50 [7]: 54.8 nM | TGI [7]: 889 nM | GI50 [8]: 19.6 nM | TGI [8]: 64.9 nM | GI50 [9]: 177 nM | TGI [9]: 721 nM | GI50 [10]: 57.6 nM | TGI [10]: 463 nM | GI50 [11]: 60.8 nM | TGI [11]: 504 nM | GI50 [12]: 451 nM | TGI [12]: 8540 nM | GI50 [13]: 26.2 nM | TGI [13]: 86 nM | GI50 [14]: 51.7 nM | TGI [14]: 244 nM | GI50 [15]: 41.7 nM | TGI [15]: 289 nM | GI50 [16]: 106 nM | TGI [16]: 418 nM | GI50 [17]: 165 nM | TGI [17]: 4110 nM | GI50 [18]: 41 nM | TGI [18]: 185 nM | GI50 [19]: 442 nM | TGI [19]: 3860 nM | GI50 [20]: 33.8 nM | TGI [20]: 858 nM | GI50 [21]: 143 nM | TGI [21]: 675 nM | GI50 [22]: 919 nM | TGI [22]: 13600 nM | GI50 [23]: 61.1 nM | TGI [23]: 304 nM | GI50 [24]: 70.6 nM | TGI [24]: 936 nM | GI50 [25]: 142 nM | TGI [25]: 1170 nM | GI50 [26]: 19.9 nM | TGI [26]: 62.1 nM | GI50 [27]: 91 nM | TGI [27]: 390 nM | GI50 [28]: 88.9 nM | TGI [28]: 816 nM | GI50 [29]: 144 nM | TGI [29]: 555 nM | GI50 [30]: 46.3 nM | TGI [30]: 530 nM | GI50 [31]: 41.1 nM | TGI [31]: 281 nM | GI50 [32]: 89.1 nM | TGI [32]: 1570 nM | GI50 [33]: 194 nM | TGI [33]: 4360 nM | GI50 [34]: 16.3 nM | TGI [34]: 31.1 nM | GI50 [35]: 81.8 nM | TGI [35]: 7100 nM | GI50 [36]: 57.6 nM | TGI [36]: 999 nM | GI50 [37]: 40.7 nM | TGI [37]: 310 nM | GI50 [38]: 119 nM | TGI [38]: 282 nM | GI50 [39]: 21.6 nM | TGI [39]: 82.7 nM | GI50 [40]: 316 nM | TGI [40]: 1040 nM | GI50 [41]: 84.2 nM | TGI [41]: 4600 nM | GI50 [42]: 424 nM | TGI [42]: 7510 nM | GI50 [43]: 192 nM | TGI [43]: 1380 nM | GI50 [44]: 342 nM | TGI [44]: 9930 nM | GI50 [45]: 90.3 nM | TGI [45]: 249 nM | GI50 [46]: 213 nM | TGI [46]: 5260 nM | GI50 [47]: 13.7 nM | TGI [47]: 29.8 nM | GI50 [48]: 72.8 nM | TGI [48]: 1540 nM | GI50 [49]: 166 nM | TGI [49]: 1170 nM | GI50 [50]: 977 nM | TGI [50]: 8460 nM | GI50 [51]: 213 nM | TGI [51]: 6540 nM | GI50 [52]: 59.8 nM | TGI [52]: 3310 nM | GI50 [53]: 1340 nM | TGI [53]: 13100 nM | GI50 [54]: 353 nM | TGI [54]: 1670 nM | GI50 [55]: 48.3 nM | TGI [55]: 337 nM | GI50 [56]: 274 nM | TGI [56]: 1220 nM | GI50 [57]: 86 nM | TGI [57]: 1050 nM | GI50 [58]: 77 nM | TGI [58]: 422 nM | GI50 [59]: 126 nM | TGI [59]: 13200 nM | GI50 [60]: 109 nM | TGI [60]: 5620 nM
